Measured values: patent publication US10761087B2, “Choroidal neovascularization suppressor or drusen formation suppressor, and method for assessing or screening for same” (Link Genomics, Inc., priority 2015, dated 2020)
pIC50: −log10 of the molar value. “Also recorded” adds a separate entry of the source. Where two headings read alike, the source gives them in different places.

Tests used:
[1] = system: EMT markers (mesenchymal markers, ECM) in RPE cells (ARPE-19); assay: Change in expression of EMT markers (real-time PCR) in EMT-induced RPE cells; type: cell-based, human; settings: for EMT suppression (FIG. 3 to FIG. 7) / Expression of EMT markers other than the ten common markers / Expression of Snail, Slug, CDH3, MMP1, MMP7, COL5A3, COL6A3, LAMC2, HMMR, TNC / Enhancement of expression of Fibronectin, Snail and vimentin (mesenchymal markers): EMT-induced ARPE-19, 48 hours; for EMT suppression (FIG. 3 to FIG. 7) / Expression of EMT markers other than the ten common markers / Expression of Snail, Slug, CDH3, MMP1, MMP7, COL5A3, COL6A3, LAMC2, HMMR, TNC: oxaprozin 300 μM, epalrestat 30 μM, zafirlukast 3 μM, amlexanox 30 μM, zaltoprofen 30 μM; for Enhancement of expression of Fibronectin, Snail and vimentin (mesenchymal markers): compound at Cmax, ½ of Cmax or ¼ of Cmax; for Expression of EMT markers at the time of EMT induction (FIG. 8 to FIG. 12): flufenamic acid aluminum 28 μM, mefenamic acid 39 μm, sulindac 100 μM, tiaprofenic acid 1000 μM, seratrodast 31 μM
Method: RPE cells (ARPE-19) were seeded on a plate, and incubated for 5 days at 37° C. For the RPE cells, EMT was induced in the conditions described in Test example 1-1, and respective compounds (oxaprozin, epalrestat, zafirlukast, amlexanox, zaltoprofen) were added simultaneously, and the cells were collected after 48 hours from induction of EMT. As a control, a sample to which a compound to be assessed (test drug) is not added was used. The collected cells were washed with PBS, and 350 μL of an RLT buffer was added to prepare a lysate for RNA extraction. The respective compounds were used in the following concentrations. Oxaprozin: 300 μM, epalrestat: 30 μM, zafirlukast: 3 μM, amlexanox: 30 μM, zaltoprofen: 30 μM. Total RNA was extracted from the lysate using an RNeasy Micro kit (QIAGEN, #74004), and from 2 μg of the obtained RNA, cDNA was prepared using a SuperScript III First-Strand Synthesis SuperMix for qRT-PCR (Invitrogen, #11752-250). Using 50 ng of the obtained cDNA as a template, a real-time PCR (ABI Prism 7500 Sequence Detection System) was conducted according to the manufacturer's protocol, and expression of mRNA of each gene was quantified. Specific primers for respective genes were purchased from Invitrogen. Ct (Threshold Cycle) value of each gene was calculated as a percentage to a non-treated sample after normalization by endogenous control.
Five compounds (flufenamic acid aluminum (addition concentration: 28 μM (Cmax)), mefenamic acid (addition concentration: 39 μm (Cmax)), sulindac (addition concentration: 100 μM), tiaprofenic acid (addition concentration: 1000 μM), and seratrodast (addition concentration: 31 μM (Cmax))) were assessed for change in expression of EMT markers in the same manner as in Test example 2-1. The results are shown in FIG. 8 to FIG. 12, respectively.
(§1) RPE cells (ARPE-19) were seeded on a plate, and incubated for 5 days at 37° C. […] Each compound was added in a concentration of Cmax, ½ of Cmax or ¼ of Cmax. As a control, a sample to which a compound to be assessed (test drug) is not added was used. The collected cells were washed with PBS, and 350 μL of an RLT buffer was added to prepare a lysate for RNA extraction. Total RNA was extracted from the lysate using an RNeasy Micro kit (QIAGEN, #74004), and from 2 μg of the obtained RNA, cDNA was prepared using a SuperScript III First-Strand Synthesis SuperMix for qRT-PCR (Invitrogen, #11752-250). Using 50 ng of the obtained cDNA as a template, a real-time PCR (ABI Prism 7500 Sequence Detection System) was conducted according to the manufacturer's protocol, and expression of mRNA of each gene was quantified. Specific primers for respective genes were purchased from Invitrogen. Ct (Threshold Cycle) value of each gene was calculated as a percentage to a non-treated sample after normalization by endogenous control. For each result, a significant test (Student t test) was conducted, and when p<0.05, the result was marked with “*”, and when p<0.01, the result was marked with “**”.
RPE cells (ARPE-19) were seeded on a plate, and incubated for 5 days at 37° C. For the RPE cells, EMT was induced in the conditions described in Test example 5-1, and the five representative compounds (oxaprozin, epalrestat, zafirlukast, amlexanox, zaltoprofen) were added simultaneously, and the cells were collected after 48 hours from induction of EMT. As a control, a sample to which a compound to be assessed (test drug) is not added was used. The collected cells were washed with PBS, and 350 μL of an RLT buffer was added to prepare a lysate for RNA extraction. Total RNA was extracted from the lysate using an RNeasy Micro kit (QIAGEN, # 74004), and from 2 μg of the obtained RNA, cDNA was prepared using a SuperScript III First-Strand Synthesis SuperMix for qRT-PCR (Invitrogen, # 11752-250). […]

RPE cells (ARPE-19) = assay: Focus (drusen-like structure) formation suppression in EMT induction model of RPE cells; type: cell-based, human; settings: for Suppression of drusen-like structure formed in the RPE cell model: FIG. 35 to 39; for pIC50: Homo sapiens
Method: RPE cells (ARPE-19) were seeded on a plate, and incubated for 5 days at 37° C. […] As a control of EMT induction, a sample to which a compound to be assessed (test drug) is not added was used. After 48 hours from EMT induction, the cells were fixed by treating with a 4% paraformaldehyde solution for 30 minutes at room temperature, and then washed three times with PBS. The cells were treated with a 0.2% Triton-X/PBS solution for 5 minutes, and washed three times with PBS. […] The fluorescent-stained cells were imaged by using an Image Express Micro (available from Molecular Devices), and digitized by using a MetaXpress2.0 (available from Molecular Devices). By analyzing the degree of formation of Focus (Focus level) from the numerical data, a Focus formation suppressing rate was calculated according to the following Formula 1 on the basis of the numerical value at the time of no addition of a compound, and the EMT suppressive effect in each compound was verified. The degree of formation of Focus (Focus level) was determined according to the number and the volume of Focus as indexes.
IC50 in the table was calculated using the following Formula 2.
A: Higher concentration sandwiching 50%
B: Lower concentration sandwiching 50%
C: Inhibition rate at lower concentration sandwiching 50%
D: Inhibition rate at higher concentration sandwiching 50%
RPE cells (ARPE-19) were seeded on a plate, and incubated for 5 days at 37° C. […] As a control of EMT induction, a sample to which a compound to be assessed (test drug) is not added was used. The cells after observation were fixed by treating with a 4% paraformaldehyde solution for 30 minutes at room temperature, and then washed three times with PBS. The cells were treated with a 0.2% Triton-X/PBS solution for 5 minutes, and washed three times with PBS. […] The fluorescent-stained cells were imaged by using an Image Express Micro (available from Molecular Devices), and digitized by using a MetaXpress2.0 (available from Molecular Devices). By analyzing the degree of formation of Focus from the numerical data, a Focus formation suppressing rate was calculated on the basis of the case without addition of a compound and the case without EMT induction, and the EMT suppressive effect in each compound was verified. […] After washing three times with methanol, the cells were dried for 3 hours at room temperature. The dried cells were observed under a microscope.

[2] = cited from earlier work
VEGF = assay: Change in expression of VEGF mRNA (real-time PCR) in EMT-induced RPE cells; type: cell-based, human; settings: EMT-induced ARPE-19, 48 hours, compound at Cmax, ½ of Cmax or ¼ of Cmax
Method: as §1
The results are shown in FIG. 16 or FIG. 17, respectively.
The VEGF suppressive effect was assessed using the cell model as described above in the same manner as in Test example 2-3. The results are shown in FIG. 18 to FIG. 20, respectively.

[3] = Table 1, EMT-induced ARPE-19, compound added simultaneously, 48 hours, read-out: IC50 (Focus formation suppressing rate, EMT suppressive effect)
[4] = Test example 7, EMT-induced ARPE-19, 48 hours, read-out: IC50 values in the drusen-like structure suppressing tests
[5] = Pharmaceutical Interview Form, single-dose administration, read-out: Cmax
[6] = Table 3, from the interview form and the package insert of each drug, read-out: Cmax
[7] = quoted in Test examples 2-3, 2-4, 2-5, read-out: Cmax (as quoted in the VEGF test examples)
[8] = RPE, Table 2, same manner as Test example 6-1, read-out: IC50 (Focus formation suppressing rate, EMT suppressive effect)

SMILES	pIC50 (RPE cells (ARPE-19); [3])	Cmax [2, 5]	Cmax [2, 7]	Enhancement of expression of Fibronectin, Snail and vimentin (mesenchymal markers) [1]	Enhancement of VEGF mRNA expression by EMT induction (VEGF)	Expression of EMT markers at the time of EMT induction (FIG. 8 to FIG. 12) [1]	pIC50 (RPE cells (ARPE-19); [8])	also measured
CC(C)c1ccc2oc3nc(N)c(C(=O)O)cc3c(=O)c2c1 [Amlexanox, amlexanox]	4.49	16 µM						EMT suppression (FIG. 3 to FIG. 7) [1]: significantly suppress EMT; Expression of EMT markers other than the ten common markers [1]: decrease in expression was observed in ZEB2, CDH2, MMP3, COL1A1, and COL13A1; Expression of Snail, Slug, CDH3, MMP1, MMP7, COL5A3, COL6A3, LAMC2, HMMR, TNC [1]: suppressed expression; Suppression of drusen-like structure formed in the RPE cell model (RPE cells (ARPE-19); EMT-induced ARPE-19, 48 hours): suppresses a drusen-like structure formed in the RPE cell model in a concentration-dependent manner; pIC50 (RPE cells (ARPE-19); [4]): 4.49; Cmax [2, 6]: 16 µM
CC(/C=C1\SC(=S)N(CC(=O)O)C1=O)=C\c1ccccc1 [Epalrestat, epalrestat]	4.77	12.2 µM	12.2 µM					pIC50 (RPE cells (ARPE-19); [4]): 4.77; Cmax [2, 6]: 12.2 µM
CCc1cccc2c3c([nH]c12)C(CC)(CC(=O)O)OCC3 (centres unmarked) [Etodolac, etodolac]			42.5 µM	did not suppress enhancement of expression of these	did not suppress enhancement of VEGF expression			
CC(C(=O)O)c1ccc(-c2ccccc2)c(F)c1 (centres unmarked) [Flurbiprofen, flurbiprofen]	4.49							
CC(C)Cc1ccc(C(C)C(=O)O)cc1 (centres unmarked) [Ibuprofen, ibuprofen]	4.74							
Cc1cccc(Nc2ccccc2C(=O)O)c1C [Mefenamic acid, mefenamic acid]		38.5 µM	38.5 µM	suppressed enhancement of expression of these in a concentration dependent manner	suppressed enhancement of VEGF expression in a concentration dependent manner	significantly suppress expression of EMT markers at the time of EMT induction; also recorded: lower expression of EMT markers at the time of EMT induction	4.91	Enhancement of VEGF mRNA expression by EMT induction (VEGF; listed as mefenamic acid): suppress enhancement of mRNA expression of VEGF
O=C(Nc1cccc2c(=O)cc(-c3nnn[nH]3)oc12)c1ccc(OCCCCc2ccccc2)cc1 [Pranlukast, pranlukast]	5.96							
CC1=C(C)C(=O)C(C(CCCCCC(=O)O)c2ccccc2)=C(C)C1=O (centres unmarked) [Seratrodast, seratrodast]		31 µM	31 µM				4.26	
CC1=C(CC(=O)O)c2cc(F)ccc2/C1=C\c1ccc([S+](C)[O-])cc1 (centres unmarked) [Sulindac, sulindac]		10.1 µM				significantly suppress expression of EMT markers at the time of EMT induction; also recorded: lower expression of EMT markers at the time of EMT induction	4.45	
CC(C(=O)O)c1ccc(C(=O)c2ccccc2)s1 (centres unmarked) [Tiaprofenic acid, tiaprofenic acid]		69.2 µM				significantly suppress expression of EMT markers at the time of EMT induction; also recorded: lower expression of EMT markers at the time of EMT induction	3.43	
COc1cc(C(=O)NS(=O)(=O)c2ccccc2C)ccc1Cc1cn(C)c2ccc(NC(=O)OC3CCCC3)cc12 [Zafirlukast, zafirlukast]	5.42	0.8 µM						EMT suppression (FIG. 3 to FIG. 7) [1]: significantly suppress EMT; Expression of EMT markers other than the ten common markers [1]: decrease in expression was observed in MMP3, COL13A1, LAMB3, or CSPG4; Expression of Snail, Slug, CDH3, MMP1, MMP7, COL5A3, COL6A3, LAMC2, HMMR, TNC [1]: suppressed expression; Suppression of drusen-like structure formed in the RPE cell model (RPE cells (ARPE-19); EMT-induced ARPE-19, 48 hours): suppresses a drusen-like structure formed in the RPE cell model in a concentration-dependent manner; pIC50 (RPE cells (ARPE-19); [4]): 5.42; Cmax [2, 6]: 0.8 µM
O=C(O)c1ccccc1Nc1cccc(C(F)(F)F)c1 [flufenamic acid aluminum]		27.9 µM	27.9 µM	suppressed enhancement of expression of these in a concentration dependent manner	suppress enhancement of mRNA expression of VEGF	significantly suppress expression of EMT markers at the time of EMT induction; also recorded: lower expression of EMT markers at the time of EMT induction	5.36	Enhancement of VEGF mRNA expression by EMT induction (VEGF; listed as Flufenamic acid aluminum): suppressed enhancement of VEGF expression in a concentration dependent manner
COc1ccc2c(c1)c(CC(=O)O)c(C)n2C(=O)c1ccc(Cl)cc1 [indomethacin]			2.79 µM	did not suppress enhancement of expression of these	did not suppress enhancement of VEGF expression			
